Source: patent publication US12214092B2, “Systems and methods for treating biological fluids” (Cerus Corporation, priority 2017, dated 2025)

Experiments:
platelets = assay: Platelet quality, platelets in 35% plasma/65% PAS III, amotosalen 30-110 μM, 340 nm device ~7.2 J/cm^2; format: cell-based
[1] = S-59 photoconversion in E. coli-spiked plasma, HPLC; format: physicochemical
Protocol: Bacterial titer results pre- and post-UVA treatment are shown in the following Table 4, along with the levels of bacterial inactivation obtained (log reduction). Additionally, the efficiency of photoconversion of amotosalen (S-59) was also determined and shown as percent remaining S-59 after each indicated treatment condition. LOQ represents the limit of quantification. Bacterial titers were analyzed pre- and post-UVA treatment to determine bacterial inactivation levels, which are shown as log reduction in the following Table 5. Additionally, S-59 photoconversion was also determined by HPLC and shown as both absolute concentration and percent remaining after each indicated treatment condition.

[2] = 340 nm, 220 mL plasma, 15 μM, ~6.4 J/cm^2
[3] = 340 nm, 350 mL plasma, 15 μM, ~6.4 J/cm^2
[4] = INT-100, 220 mL plasma, 15 μM, ~6.4 J/cm^2
[5] = INT-100, 350 mL plasma, 15 μM, ~6.4 J/cm^2

Structure (SMILES): Cc1oc2c(C)c3oc(=O)cc(C)c3cc2c1COCCN [S-59, 3-(2-aminoethoxymethyl)-2,5,9-trimethylfuro[3,2-g]chromen-7-one]
- Glucose (platelets; 30 μM, D4): 3.27 mmol/L
- LDH (platelets; 30 μM, D4): 7.44 LDH IU/10^11 platelets
- Lactate (platelets; 30 μM, D4): 7.1 mmol/L
- Platelet counts (platelets; 30 μM, D4): 1385 x10^3 cells/μL
- Platelet lysis (platelets; 30 μM, D4): 2.86%
- pCO2 at 37° C. (platelets; 30 μM, D4): 26.7 mm Hg
- pH at 22° C. (platelets; 30 μM, D4): 7.11
- pH at 37° C. (platelets; 30 μM, D4): 6.88
- pO2 at 37° C. (platelets; 30 μM, D4): 28.9 mm Hg
- Glucose (platelets; 30 μM, D7): 0.16 mmol/L
- LDH (platelets; 30 μM, D7): 8.26 LDH IU/10^11 platelets
- Lactate (platelets; 30 μM, D7): 15.38 mmol/L
- Platelet counts (platelets; 30 μM, D7): 1392 x10^3 cells/μL
- Platelet lysis (platelets; 30 μM, D7): 3.17%
- pCO2 at 37° C. (platelets; 30 μM, D7): 23.6 mm Hg
- pH at 22° C. (platelets; 30 μM, D7): 7.08
- pH at 37° C. (platelets; 30 μM, D7): 6.86
- pO2 at 37° C. (platelets; 30 μM, D7): 57.3 mm Hg
- Glucose (platelets; 30 μM, Post-UV): 5.45 mmol/L
- LDH (platelets; 30 μM, Post-UV): 7.80 LDH IU/10^11 platelets
- Lactate (platelets; 30 μM, Post-UV): 8.21 mmol/L
- Platelet counts (platelets; 30 μM, Post-UV): 1308 x10^3 cells/μL
- Platelet lysis (platelets; 30 μM, Post-UV): 2.85%
- pCO2 at 37° C. (platelets; 30 μM, Post-UV): 34.9 mm Hg
- pH at 22° C. (platelets; 30 μM, Post-UV): 7.07
- pH at 37° C. (platelets; 30 μM, Post-UV): 6.84
- pO2 at 37° C. (platelets; 30 μM, Post-UV): 11.6 mm Hg
- Glucose (platelets; 30 μM, Pre-UV): 5.2 mmol/L
- LDH (platelets; 30 μM, Pre-UV): 7.13 LDH IU/10^11 platelets
- Lactate (platelets; 30 μM, Pre-UV): 8.6 mmol/L
- Platelet counts (platelets; 30 μM, Pre-UV): 1346 x10^3 cells/μL
- Platelet lysis (platelets; 30 μM, Pre-UV): 2.46%
- pCO2 at 37° C. (platelets; 30 μM, Pre-UV): 35.0 mm Hg
- pH at 22° C. (platelets; 30 μM, Pre-UV): 7.07
- pH at 37° C. (platelets; 30 μM, Pre-UV): 6.85
- pO2 at 37° C. (platelets; 30 μM, Pre-UV): 4.8 mm Hg
- Glucose (platelets; 60 μM, D4): 2.92 mmol/L
- LDH (platelets; 60 μM, D4): 8.12 LDH IU/10^11 platelets
- Lactate (platelets; 60 μM, D4): 10.11 mmol/L
- Platelet counts (platelets; 60 μM, D4): 1379 x10^3 cells/μL
- Platelet lysis (platelets; 60 μM, D4): 3.10%
- pCO2 at 37° C. (platelets; 60 μM, D4): 26.6 mm Hg
- pH at 22° C. (platelets; 60 μM, D4): 7.11
- pH at 37° C. (platelets; 60 μM, D4): 6.88
- pO2 at 37° C. (platelets; 60 μM, D4): 28.8 mm Hg
- Glucose (platelets; 60 μM, D7): 0 mmol/L
- LDH (platelets; 60 μM, D7): 8.48 LDH IU/10^11 platelets
- Lactate (platelets; 60 μM, D7): 15.16 mmol/L
- Platelet counts (platelets; 60 μM, D7): 1403 x10^3 cells/μL
- Platelet lysis (platelets; 60 μM, D7): 3.37%
- pCO2 at 37° C. (platelets; 60 μM, D7): 23.1 mm Hg
- pH at 22° C. (platelets; 60 μM, D7): 7.08
- pH at 37° C. (platelets; 60 μM, D7): 6.86
- pO2 at 37° C. (platelets; 60 μM, D7): 61.0 mm Hg
- Glucose (platelets; 60 μM, Post-UV): 5.04 mmol/L
- LDH (platelets; 60 μM, Post-UV): 7.53 LDH IU/10^11 platelets
- Lactate (platelets; 60 μM, Post-UV): 6.93 mmol/L
- Platelet counts (platelets; 60 μM, Post-UV): 1249 x10^3 cells/μL
- Platelet lysis (platelets; 60 μM, Post-UV): 2.65%
- pCO2 at 37° C. (platelets; 60 μM, Post-UV): 35.1 mm Hg
- pH at 22° C. (platelets; 60 μM, Post-UV): 7.06
- pH at 37° C. (platelets; 60 μM, Post-UV): 6.83
- pO2 at 37° C. (platelets; 60 μM, Post-UV): 8.0 mm Hg
- Glucose (platelets; 60 μM, Pre-UV): 5.16 mmol/L
- LDH (platelets; 60 μM, Pre-UV): 7.66 LDH IU/10^11 platelets
- Lactate (platelets; 60 μM, Pre-UV): 6.72 mmol/L
- Platelet counts (platelets; 60 μM, Pre-UV): 1344 x10^3 cells/μL
- Platelet lysis (platelets; 60 μM, Pre-UV): 2.68%
- pCO2 at 37° C. (platelets; 60 μM, Pre-UV): 33.7 mm Hg
- pH at 22° C. (platelets; 60 μM, Pre-UV): 7.08
- pH at 37° C. (platelets; 60 μM, Pre-UV): 6.85
- pO2 at 37° C. (platelets; 60 μM, Pre-UV): 29.4 mm Hg
- Glucose (platelets; 90 μM, D4): 2.97 mmol/L
- Lactate (platelets; 90 μM, D4): 9.83 mmol/L
- Platelet counts (platelets; 90 μM, D4): 1373 x10^3 cells/μL
- Platelet lysis (platelets; 90 μM, D4): 3.23%
- pCO2 at 37° C. (platelets; 90 μM, D4): 26.9 mm Hg
- pH at 22° C. (platelets; 90 μM, D4): 7.10
- pH at 37° C. (platelets; 90 μM, D4): 6.87
- pO2 at 37° C. (platelets; 90 μM, D4): 25.7 mm Hg
- Glucose (platelets; 90 μM, D7): 0 mmol/L
- LDH (platelets; 90 μM, D7): 8.67 LDH IU/10^11 platelets
- Lactate (platelets; 90 μM, D7): 14.62 mmol/L
- Platelet counts (platelets; 90 μM, D7): 1384 x10^3 cells/μL
- Platelet lysis (platelets; 90 μM, D7): 3.53%
- pCO2 at 37° C. (platelets; 90 μM, D7): 22.6 mm Hg
- pH at 22° C. (platelets; 90 μM, D7): 7.10
- pH at 37° C. (platelets; 90 μM, D7): 6.87
- pO2 at 37° C. (platelets; 90 μM, D7): 61.8 mm Hg
- Glucose (platelets; 90 μM, Post-UV): 4.95 mmol/L
- Lactate (platelets; 90 μM, Post-UV): 7.11 mmol/L
- Platelet counts (platelets; 90 μM, Post-UV): 1313 x10^3 cells/μL
- Platelet lysis (platelets; 90 μM, Post-UV): 2.64%
- pCO2 at 37° C. (platelets; 90 μM, Post-UV): 33.7 mm Hg
- pH at 22° C. (platelets; 90 μM, Post-UV): 7.06
- pH at 37° C. (platelets; 90 μM, Post-UV): 6.83
- pO2 at 37° C. (platelets; 90 μM, Post-UV): 29.3 mm Hg
- Glucose (platelets; 90 μM, Pre-UV): 4.9 mmol/L
- Lactate (platelets; 90 μM, Pre-UV): 6.95 mmol/L
- Platelet counts (platelets; 90 μM, Pre-UV): 1344 x10^3 cells/μL
- Platelet lysis (platelets; 90 μM, Pre-UV): 2.76%
- pCO2 at 37° C. (platelets; 90 μM, Pre-UV): 34.9 mm Hg
- pH at 22° C. (platelets; 90 μM, Pre-UV): 7.06
- pH at 37° C. (platelets; 90 μM, Pre-UV): 6.84
- pO2 at 37° C. (platelets; 90 μM, Pre-UV): 9.0 mm Hg
- Platelet counts (platelets; 110 μM, D4): 0 x10^3 cells/μL
- Platelet counts (platelets; 110 μM, D7): 0 x10^3 cells/μL
- Glucose (platelets; 110 μM, Post-UV): 4.88 mmol/L
- LDH (platelets; 110 μM, Post-UV): 6.97 LDH IU/10^11 platelets
- Lactate (platelets; 110 μM, Post-UV): 7.18 mmol/L
- Platelet counts (platelets; 110 μM, Post-UV): 1335 x10^3 cells/μL
- Platelet lysis (platelets; 110 μM, Post-UV): 2.72%
- pCO2 at 37° C. (platelets; 110 μM, Post-UV): 34.2 mm Hg
- pH at 22° C. (platelets; 110 μM, Post-UV): 7.05
- pH at 37° C. (platelets; 110 μM, Post-UV): 6.83
- pO2 at 37° C. (platelets; 110 μM, Post-UV): 16.1 mm Hg
- Glucose (platelets; 110 μM, Pre-UV): 4.95 mmol/L
- LDH (platelets; 110 μM, Pre-UV): 7.42 LDH IU/10^11 platelets
- Lactate (platelets; 110 μM, Pre-UV): 6.85 mmol/L
- Platelet counts (platelets; 110 μM, Pre-UV): 1308 x10^3 cells/μL
- Platelet lysis (platelets; 110 μM, Pre-UV): 2.65%
- pCO2 at 37° C. (platelets; 110 μM, Pre-UV): 33.7 mm Hg
- pH at 22° C. (platelets; 110 μM, Pre-UV): 7.07
- pH at 37° C. (platelets; 110 μM, Pre-UV): 6.84
- pO2 at 37° C. (platelets; 110 μM, Pre-UV): 6.3 mm Hg
- % S-59 remaining ([1]; 340 nm, 1.5 μM, ~3 J/cm^2): 9.0%
- % S-59 remaining ([1]; 340 nm, 1.5 μM, ~6 J/cm^2): <LOQ
- % S-59 remaining ([1]; 340 nm, 1.5 μM, ~9 J/cm^2): <LOQ
- % S-59 remaining ([1]; 340 nm, 15 μM, ~3 J/cm^2): 13.5%
- % S-59 remaining ([1]; 340 nm, 15 μM, ~6 J/cm^2): 2.5%
- % S-59 remaining ([1]; 340 nm, 15 μM, ~9 J/cm^2): <LOQ
- % S-59 remaining ([1]; 340 nm, 150 μM, ~3 J/cm^2): 39.9%
- % S-59 remaining [1, 2]: 3.0%
- S-59 Remaining [1, 2]: 0.5 µM
- % S-59 remaining [1, 3]: 8.0%
- S-59 Remaining [1, 3]: 1.1 µM
- % S-59 remaining ([1]; INT-100, 15 μM, ~3 J/cm^2): 40.5%
- % S-59 remaining ([1]; INT-100, 150 μM, ~3 J/cm^2): 63.0%
- % S-59 remaining [1, 4]: 26.0%
- S-59 Remaining [1, 4]: 4.0 µM
- % S-59 remaining [1, 5]: 37.0%
- S-59 Remaining [1, 5]: 5.5 µM
